Data as given in US11400059B2, “Treatment of pain and/or pain related symptoms associated with dysmenorrhea” (ALYRA BIOTECH PTY LTD, priority 2017, dated 2022).

Target: T1, Human Dectin-1a (Homo sapiens, UniProt Q9BXN2)
T1 construct: expressed in transfected cells; host or cells: HEK293
T1 sequence (Q9BXN2 1-247): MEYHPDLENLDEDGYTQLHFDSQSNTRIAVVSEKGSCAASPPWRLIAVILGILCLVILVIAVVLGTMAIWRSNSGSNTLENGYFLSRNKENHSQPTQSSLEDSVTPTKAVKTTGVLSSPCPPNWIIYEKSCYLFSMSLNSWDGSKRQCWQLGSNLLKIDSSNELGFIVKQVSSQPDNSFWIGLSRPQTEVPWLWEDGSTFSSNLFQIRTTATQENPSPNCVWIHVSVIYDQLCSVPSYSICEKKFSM
Assay: Human CLR antagonist screening, NF-κB SEAP reporter in HEK293 cells
Format: cell-based
Conditions: antagonist mode, Ami 1 μM
Experimental: Toll-Like Receptor (TLR), NOD-Like Receptor (NLR) and C-Type Lectin Receptor (CLR) stimulation were tested by assessing NF-κB activation in HEK293 cells expressing a given TLR, NLR or CLR. The activity of the test articles was tested at one concentration and compared to control ligands. These steps were performed in triplicate. hDectin-1a and hDectin-1b: WGP Soluble (0-glucan from S. cerevisiae) at 10 ng/mL Antagonist: 5 ng/mL. Curdlan at 100 μg/mL. Antagonist: 100 μg/mL. Zymosan Depleted (hot alkali treated S. cerevisiae) at 5 μg/mL Antagonist: 3 μg/mL. In a 96-well plate (200 μL total volume) containing the appropriate cells (50,000-75,000 cells/well), 20 μL of the test article or the positive control ligand was added to the wells. For the antagonist assay, the test article was incubated with the cells, at 37° C. with 5% CO2, for 30 minutes prior to the addition of the positive control ligand to the wells. The media added to the wells was designed for the detection of NF-κB induced SEAP expression. After a 16-24 hr incubation the optical density (OD) was read at 650 nm on a Molecular Devices SpectraMax 340PC absorbance detector. Fold induction (ratio of average induced value to average non-induced value) was determined for each TLR, NOD1, NOD2, Dectin-1a, Dectin-1b.

CN(C)CCC=C1c2ccccc2CCc2ccccc21 [Amitriptyline]
Fold Induction (+Curdlan 100 μg/mL, No Sample 5, Control− 1): slight inhibitory effect
Fold Induction (+Curdlan 100 μg/mL, No Sample 5, Control− 1, listed as Ami): 4
Fold Induction (+WGP Soluble 5 ng/mL, No Sample 8, Control− 1): 8
Fold Induction (+Zymosan Depleted 3 μg/mL, No Sample 6, Control− 1): slight inhibitory effect
Fold Induction (+Zymosan Depleted 3 μg/mL, No Sample 6, Control− 1, listed as Ami): 4
